Reference: ChEMBL document CHEMBL4482314, “Small molecule inhibitors of ghrelin O-acyltransferase” (2012)
Active and inactive are the calls of the source. The rule behind the calls is not given here. Where a SMILES comes first, the peptide text is derived from it. [ ]: non-standard residue; d: D form. The star is where a group is joined. Octanoyl = CCCCCCCC(=O)*; Dap = NC[C@H](N)C(=O)O

Assays:
[1] = target: T1, Membrane-bound ghrelin O-acyltransferase MBOAT4 (Mus musculus) (UniProt P0C7A3); assay: Inhibition of His10-tagged mouse GOAT expressed in baculovirus infected Sf9 cells assessed as reduction in specific acyl transfer from tritiated-octanoyl CoA to recombinant His-tagged pro-ghrelin at <500 uM
T1 sequence (whole entry): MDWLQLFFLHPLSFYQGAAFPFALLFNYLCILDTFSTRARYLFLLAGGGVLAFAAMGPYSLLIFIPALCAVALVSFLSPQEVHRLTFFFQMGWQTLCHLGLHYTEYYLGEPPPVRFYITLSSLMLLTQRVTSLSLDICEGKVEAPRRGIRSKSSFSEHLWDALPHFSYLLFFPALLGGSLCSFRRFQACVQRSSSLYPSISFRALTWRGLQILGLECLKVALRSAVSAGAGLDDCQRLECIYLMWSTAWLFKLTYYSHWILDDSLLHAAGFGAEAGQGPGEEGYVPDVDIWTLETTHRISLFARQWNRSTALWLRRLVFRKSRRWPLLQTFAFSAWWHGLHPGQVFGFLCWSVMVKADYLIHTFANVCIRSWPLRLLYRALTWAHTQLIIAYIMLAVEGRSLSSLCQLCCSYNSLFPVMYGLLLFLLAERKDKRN

[2] = target: T1, Membrane-bound ghrelin O-acyltransferase MBOAT4 (Mus musculus); assay: Inhibition of His10-tagged mouse GOAT expressed in baculovirus infected Sf9 cells assessed as reduction in specific acyl transfer from tritiated-octanoyl CoA to recombinant His-tagged pro-ghrelin at 500 uM
[3] = target: T1, Membrane-bound ghrelin O-acyltransferase MBOAT4 (Mus musculus); assay: Inhibition of His10-tagged mouse GOAT expressed in baculovirus infected Sf9 cells assessed as reduction in specific acyl transfer from tritiated-octanoyl CoA to recombinant His-tagged pro-ghrelin at 100 uM
[4] = target: T1, Membrane-bound ghrelin O-acyltransferase MBOAT4 (Mus musculus); assay: Inhibition of His10-tagged mouse GOAT expressed in baculovirus infected Sf9 cells assessed as reduction in specific acyl transfer from tritiated-octanoyl CoA to recombinant His-tagged pro-ghrelin
[5] = target: T2, Membrane-bound ghrelin O-acyltransferase MBOAT4 (Homo sapiens) (UniProt Q96T53); assay: Inhibition of GOAT (unknown origin) expressed in intact rat INS1 cells co-expressing pre-proghrelin incubated for 24 hrs; assay type: cell-based
T2 sequence (whole entry): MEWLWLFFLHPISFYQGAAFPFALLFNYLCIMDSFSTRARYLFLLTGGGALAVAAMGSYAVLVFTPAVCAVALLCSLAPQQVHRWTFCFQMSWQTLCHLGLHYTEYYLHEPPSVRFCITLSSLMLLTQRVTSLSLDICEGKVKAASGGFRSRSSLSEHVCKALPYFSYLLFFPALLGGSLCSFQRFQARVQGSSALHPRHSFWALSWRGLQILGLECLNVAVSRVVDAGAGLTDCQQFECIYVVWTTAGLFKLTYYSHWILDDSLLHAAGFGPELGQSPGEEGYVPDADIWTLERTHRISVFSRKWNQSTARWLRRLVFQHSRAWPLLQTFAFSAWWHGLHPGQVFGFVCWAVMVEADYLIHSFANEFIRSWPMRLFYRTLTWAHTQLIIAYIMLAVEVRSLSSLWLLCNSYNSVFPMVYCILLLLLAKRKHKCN

inhibition [4] | Compound | further results
 | CCCCCCCC(O)/C=C/[C@H](NC(=O)OCc1ccccc1)C(=O)OC (some centres not stated) | inhibition [1]: Active; inhibition [2]: Active; inhibition [3]: Active
Dose-dependent effect | CCCCCCCC(=O)NC[C@H](NC(=O)[C@H](CO)NC(=O)CN)C(=O)N[C@@H](Cc1ccccc1)C(=O)N[C@@H](CC(C)C)C(N)=O (H-GS[Dap](Octanoyl)FL-NH2) | 
Active | CCCCCCCC(C)(O)/C=C/[C@H](NC(=O)OCc1ccccc1)C(=O)NC(C)C (some centres not stated) | 
 | CCCCCCCC(O)CC[C@H](NC(=O)OCc1ccccc1)C(=O)N[C@H](COC)Cc1ccccc1 (some centres not stated) | inhibition [3]: Active
 | CCCCCCCC(O)CC[C@H](NC(=O)C(C)(C)CO)C(=O)N[C@H](COC)Cc1ccccc1 (some centres not stated) | inhibition [1]: Active; inhibition [2]: Active
inactive | CCC(C)(O)/C=C/[C@H](NC(=O)OCc1ccccc1)C(=O)OC (some centres not stated) | 
Dose-dependent effect | CCCCCCC[S+]([O-])CC[C@H](NC(=O)OCc1ccccc1)C(=O)OC (some centres not stated) | 
Dose-dependent effect | CCCCCCCC(C)(O)/C=C/[C@H](NC(=O)OCc1ccccc1)C(=O)OC (some centres not stated) | inhibition [5]: Active; inhibition [3]: Active
Active | CCCCCCCC(C)(O)/C=C/CNC(=O)OCc1ccccc1 (configuration not stated) | 
inactive | CCCCCCCC(C)(O)/C=C/[C@H](NC(=O)C(C)(C)CO)C(=O)OC (some centres not stated) | 
 | CCCCCCCC(=O)CC[C@H](NC(=O)OCc1ccccc1)C(=O)OC | inhibition [3]: Active
Active | CCCCCCCC(C)(O)/C=C/[C@@H](NC(=O)OCc1ccccc1)C(=O)OC (some centres not stated) | inhibition [2]: Active
Active | CCCCCCCC(C)(O)C/C=C(/NC(=O)OCc1ccccc1)C(=O)NC(C)C (configuration not stated) | 
Active | CCCCCCCC(C)(O)/C=C/[C@H](NC(=O)C(C)(C)CO)C(=O)N[C@@H](Cc1ccccc1)C(=O)N[C@@H](CC(C)C)C(N)=O (some centres not stated) | 
 | CCCCCCCC(O)CC[C@H](NC(=O)C(C)(C)CO)C(=O)OC (some centres not stated) | inhibition [2]: Active
inactive | CCCCCCCC(=O)NC[C@H](NC(=O)OCc1ccccc1)C(=O)OC | 
